For 20 compounds, IC50 results are on record in patent US20110224193A1, “INHIBITORS OF DIACYLGLYCEROL ACYLTRANSFERASE” (MERCK SHARP & DOHME CORP, priority 2008, published 2011).

The target of the experiment is T1, human DGAT1 enzyme (Homo sapiens, UniProt O75907).
T1 construct: made in house; host or cells: Sf9 insect cells (microsomes)
T1 sequence (O75907 1-488): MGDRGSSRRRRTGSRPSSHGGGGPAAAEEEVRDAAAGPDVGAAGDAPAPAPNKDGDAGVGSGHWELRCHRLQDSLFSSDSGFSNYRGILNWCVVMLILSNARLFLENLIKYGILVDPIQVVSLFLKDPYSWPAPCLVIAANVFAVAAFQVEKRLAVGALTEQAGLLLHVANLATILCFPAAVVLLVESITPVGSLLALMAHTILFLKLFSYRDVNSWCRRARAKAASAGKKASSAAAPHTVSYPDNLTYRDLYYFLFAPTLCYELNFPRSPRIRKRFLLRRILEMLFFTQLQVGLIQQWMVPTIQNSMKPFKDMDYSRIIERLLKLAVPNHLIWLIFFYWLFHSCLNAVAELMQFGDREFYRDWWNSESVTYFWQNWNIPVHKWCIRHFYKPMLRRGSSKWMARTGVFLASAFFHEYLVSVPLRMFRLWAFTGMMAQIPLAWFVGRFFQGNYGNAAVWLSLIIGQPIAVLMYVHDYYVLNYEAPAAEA
The experiment is described as follows: in vitro DGAT1 inhibition assay (microsomes, [14C]-palmitoyl-CoA, SPA beads). The class given is biochemical. The note with it: human DGAT1 expressed in Sf9 insect cell microsomes, 2 hours at room temperature; read-out: hDGAT IC50. On the procedure: A useful assay to determine the DGAT inhibitory activity of the inventive compounds is described below:
The in vitro assay to identify DGAT1 inhibitors uses human DGAT1 enzyme expressed in Sf9 insect cells prepared as microsomes. The reaction is initiated by the addition of the combined substrates 1,2-dioleoyl-sn-glycerol and [^14C]-palmitoyl-Co A and incubated with test compounds and microsomal membranes for 2 hours at room temperature. The assay is stopped by adding 0.5 mg wheat germ agglutinin beads in assay buffer with 1% Brij-35 and 1% 3-cholamidopropyldimethyl-ammonio-1-propane sulfonate. Plates are sealed with TopSeal and incubated for 18 hours to allow the radioactive triglyceride product to come into proximity with the bead. Plates are read on a TopCount instrument.
Percent inhibition was calculated as the percent of (test compound inhibition minus non-specific binding) relative to (total binding minus non-specific binding). IC50 values were determined by curve fitting the data to a Sigmoidal dose-response in GraphPad Prism utilizing the following equation:
Y=A+(B−A)/(1+10̂((Log IC50−X))),
where A and B are the bottom and top of the curve (highest and lowest inhibition), respectively, and X is the logarithm of concentration.

For orientation: IC50 means the concentration that inhibits the measured activity by half. For `O=C(Nc1ccc(N2CCN(Cc3ccccc3)C(=O)C2)nc1)c1oc(-c2ccccc2)nc1C(F)(F)F` [Compound 62], the IC50 fell in the range of 0.011 to 0.1 µM. In the case of `O=C(Nc1ccc(N2CCC(n3c(=O)[nH]c4ccccc43)CC2)nc1)c1oc(-c2ccccc2)nc1C(F)(F)F` [Compound 72], the IC50 fell in the range of 0.101 to 0.5 µM. With `O=C(Nc1ccc(N2CCC(O)(c3ccccc3)CC2)nc1)c1oc(-c2ccccc2)nc1C(F)(F)F` [Compound 78], the IC50 was 0.101 to 0.5 µM. `O=C(Nc1ccc(N2CCC(O)(c3ccccc3)CC2)nc1)c1nc(-c2ccccc2)oc1C(F)(F)F` [Compound 82]: the IC50 was 0.101 to 0.5 µM. Take `O=C(Nc1ccc(N2CCC(CCc3ccccc3)CC2)nc1)c1oc(-c2ccccc2)nc1C(F)(F)F` [Compound 151]: the half-inhibitory concentration (IC50) was 0.101 to 0.5 µM.

On to `O=C(Nc1ccc(N2CCC(OCc3ccccc3)CC2)nc1)c1oc(-c2ccccc2)nc1C(F)(F)F` [Compound 153], for which the IC50 was 0.011 to 0.1 µM. For `O=C(Nc1ccc(N2CCC(C(O)c3ccccc3)CC2)nc1)c1oc(-c2ccccc2)nc1C(F)(F)F` (centres unmarked) [Compound 155], the half-inhibitory concentration (IC50) fell in the range of 0.011 to 0.1 µM.

Turning to `O=C(Nc1ccc(N2CCC(=O)N(Cc3ccccc3)CC2)nc1)c1oc(-c2ccccc2)nc1C(F)(F)F` [Compound 157], the IC50 is 0.101 to 0.5 µM.

With `O=C(Nc1ccc(N2CCN(C(=O)C(O)C(F)(F)F)CC2)nc1)c1oc(-c2ccccc2)nc1C(F)(F)F` (centres unmarked) [Compound 164], the half-inhibitory concentration (IC50) was in the range of 0.011 to 0.1 µM. On to `O=C(Nc1ccc(N2CCN(C(=O)[C@H](O)c3ccccc3)CC2)nc1)c1oc(-c2ccccc2)nc1C(F)(F)F` [Compound 165], for which the IC50 lay within 0.011 to 0.1 µM. To `O=C(Nc1ccc(N2CCN(C(=O)C(O)c3ccc(Cl)cc3)CC2)nc1)c1oc(-c2ccccc2)nc1C(F)(F)F` (centres unmarked) [Compound 168] belongs 0.011 to 0.1 µM; to `O=C(Nc1ccc(N2CCN(C(=O)[C@H](O)C3CCCCC3)CC2)nc1)c1oc(-c2ccccc2)nc1C(F)(F)F` [Compound 169], 0.011 to 0.1 µM. The same measure for `O=C(Nc1ccc(N2CCN(C(=O)[C@@H](O)C3CCCCC3)CC2)nc1)c1oc(-c2ccccc2)nc1C(F)(F)F` [Compound 170]: 0.011 to 0.1 µM.

As for `O=C(Nc1ccc(N2CCN(C(=O)C(O)Cc3ccccc3)CC2)nc1)c1oc(-c2ccccc2)nc1C(F)(F)F` (centres unmarked) [Compound 171], the IC50 is 0.011 to 0.1 µM. The same measure for `O=C(O)CC(O)(C(=O)N1CCN(c2ccc(NC(=O)c3oc(-c4ccccc4)nc3C(F)(F)F)cn2)CC1)C(F)(F)F` (centres unmarked) [Compound 172]: 0.011 to 0.1 µM. To `O=C(Nc1ccc(N2CCN(C(=O)C(O)c3ccc4c(c3)OCO4)CC2)nc1)c1oc(-c2ccccc2)nc1C(F)(F)F` (centres unmarked) [Compound 176] belongs 0.011 to 0.1 µM; to `O=C(Nc1ccc(N2CCCN(C(=O)[C@H](O)c3ccccc3)CC2)nc1)c1oc(-c2ccccc2)nc1C(F)(F)F` [Compound 179], 0.011 to 0.1 µM. The same measure for `O=C(Nc1ccc(N2CCCN(C(=O)[C@H](O)C3CCCCC3)CC2)nc1)c1oc(-c2ccccc2)nc1C(F)(F)F` [Compound 180]: 0.011 to 0.1 µM; for `O=C(Nc1ccc(N2CCCN(C(=O)C(O)C(F)(F)F)CC2)nc1)c1oc(-c2ccccc2)nc1C(F)(F)F` (centres unmarked) [Compound 181]: 0.011 to 0.1 µM; for `O=C(Nc1ccc(N2CCCN(C(=O)[C@H](O)c3ccc(F)c(F)c3)CC2)nc1)c1oc(-c2ccccc2)nc1C(F)(F)F` [Compound 182]: 0.011 to 0.1 µM.
